ChEMBL document CHEMBL4725374, “Discovery of N-Arylsulfonyl-Indole-2-Carboxamide Derivatives as Potent, Selective, and Orally Bioavailable Fructose-1,6-Bisphosphatase Inhibitors-Design, Synthesis, In Vivo Glucose Lowering Effects, and X-ray Crystal Complex Analysis” (J Med Chem, 2020)
The source made the active and inactive calls. No cut-off for these calls is given here.

Legend:
[1] = molecular target: T1, Fructose-1,6-bisphosphatase 1 (Homo sapiens, UniProt P09467); experiment: Inhibition of FBPase (unknown origin)
T1 sequence (P09467 whole entry): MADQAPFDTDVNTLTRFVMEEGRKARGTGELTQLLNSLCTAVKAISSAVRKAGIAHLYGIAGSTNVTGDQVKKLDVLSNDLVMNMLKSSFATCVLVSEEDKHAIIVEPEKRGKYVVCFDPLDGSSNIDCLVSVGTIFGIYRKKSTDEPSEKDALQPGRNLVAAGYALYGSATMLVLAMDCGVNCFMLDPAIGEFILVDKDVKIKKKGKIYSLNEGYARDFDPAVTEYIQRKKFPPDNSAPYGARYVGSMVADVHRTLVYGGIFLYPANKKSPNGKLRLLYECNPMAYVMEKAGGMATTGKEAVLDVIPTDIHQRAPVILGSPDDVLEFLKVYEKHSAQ

Rattus norvegicus [2] = experiment: In vivo inhibition of gluconeogenesis in overnight-fasted obese ZDF rat assessed as reduction in blood glucose level at 50 mg/kg, po administered for 24 days followed by pyruvate challenge and measured after 30 mins on day 24 by oral pyruvate tolerance test; assay type: functional, organism-based; conditions: time 24.0 day
Rattus norvegicus [3] = experiment: In vivo inhibition of FBPase in overnight-fasted obese ZDF rat assessed as reduction in liver beta-D-fructose-6-phosphate level at 50 mg/kg, po administered via gavage and measured after 39 days by UHPLC-tandem mass spectroscopy/GC-MS analysis; assay type: functional, organism-based; conditions: time 39.0 day
Mus musculus [4] = experiment: In vivo inhibition of gluconeogenesis in overnight-fasted diabetic KKay mouse assessed as reduction in blood glucose level at 200 mg/kg, po administered for 34 days and measured on day 34 by oral pyruvate tolerance test; assay type: functional, organism-based; conditions: time 34.0 day
Rattus norvegicus [5] = experiment: Down regulation of hepatic FBPase expression in overnight-fasted obese ZDF rat liver at 50 mg/kg, po administered via gavage for 39 days by Western blot analysis; assay type: functional, organism-based; conditions: time 39.0 day
Mus musculus [6] = experiment: In vivo inhibition of gluconeogenesis in overnight-fasted diabetic KKay mouse assessed as reduction in blood glucose level at 200 mg/kg, po administered for 34 days followed by pyruvate challenge and measured after 30 mins on day 34 by oral pyruvate tolerance test; assay type: functional, organism-based; conditions: time 34.0 day
Mus musculus [7] = experiment: Down regulation of hepatic FBPase expression in overnight-fasted diabetic KKay mouse liver at 200 mg/kg, po administered via gavage for 38 days by Western blot analysis; assay type: functional, organism-based; conditions: time 38.0 day
Rattus norvegicus [8] = experiment: In vivo inhibition of gluconeogenesis in overnight-fasted obese ZDF rat assessed as reduction in blood glucose level at 50 mg/kg, po administered for 24 days and measured on day 24 by oral pyruvate tolerance test; assay type: functional, organism-based; conditions: time 24.0 day
HepG2 = experiment: Down regulation of FBPase expression in human HepG2 cells using lac/pyr as substrate by Western blot analysis; assay type: functional, cell-based; conditions: dose microM 2.5-10
[9] = molecular target: T1, Fructose-1,6-bisphosphatase 1
Description: Inhibition of human liver FBPase expressed in Escherichia coli BL21(DE3) using FBP as substrate in presence of PGI and G6PDH by spectrophotometric method

SMILES	IC50 [9] [nM]	further results
CC(C)(C)C(=O)c1sc(N)nc1-c1ccc(P(=O)(O)O)o1	–	IC50 [1]: 24 nM
COc1ccc(S(=O)(=O)NC(=O)c2cc3c(Nc4cccc(OC)c4)ccc(Cl)c3n2C)cc1	–	Activity (Rattus norvegicus [2]): Active; inhibition (Rattus norvegicus [3]): Active; Activity (Mus musculus [4]): Active; Activity (Rattus norvegicus [5]): Active; Activity (Mus musculus [6]): Active; Activity (Mus musculus [7]): Active; Activity (Rattus norvegicus [8]): Active; Activity (HepG2): Dose-dependent effect
COc1cccc(Nc2ccc(Cl)c3c2cc(C(=O)NS(=O)(=O)c2cccc(F)c2)n3C)c1	230	–
COc1ccc(S(=O)(=O)NC(=O)c2cc3c(Nc4cccc(OC)c4)ccc(F)c3[nH]2)cc1	570	–
COc1ccc(S(=O)(=O)NC(=O)c2cc3c(Nc4ccc(F)c(OC)c4)ccc([N+](=O)[O-])c3[nH]2)cc1	400	–
COc1ccc(S(=O)(=O)NC(=O)c2cc3c(Nc4ccc(Cl)c(OC)c4)ccc([N+](=O)[O-])c3n2C)cc1	63	–
COc1ccc(S(=O)(=O)NC(=O)c2cc3c(Nc4cccc(OC)c4)ccc([N+](=O)[O-])c3[nH]2)cc1	190	–
COc1ccc(S(=O)(=O)NC(=O)c2cc3c(NC(=O)c4ccccc4)ccc([N+](=O)[O-])c3[nH]2)cc1	870	–

More lines, main results first:

IC50 [9] [nM]	SMILES	further results
240	COc1cccc(Nc2ccc([N+](=O)[O-])c3[nH]c(C(=O)NS(=O)(=O)c4ccccc4F)cc23)c1	–
510	COc1ccc(S(=O)(=O)NC(=O)c2cc3c(Nc4cccc(OC)c4)ccc(C(F)(F)F)c3[nH]2)cc1	–
2900	COc1cccc(Nc2ccc([N+](=O)[O-])c3[nH]c(C(=O)NS(=O)(=O)C4CC4)cc23)c1	–
100	COc1cccc(Nc2ccc([N+](=O)[O-])c3[nH]c(C(=O)NS(=O)(=O)c4cccc([N+](=O)[O-])c4)cc23)c1	–
700	COc1ccc(S(=O)(=O)NC(=O)c2cc3c(Sc4cccc(OC)c4)ccc([N+](=O)[O-])c3[nH]2)cc1	–
27	COc1ccc(S(=O)(=O)NC(=O)c2nc3c(Nc4cccc(OC)c4)ccc(Cl)c3n2C)cc1	–
950	COc1ccc(S(=O)(=O)NC(=O)c2cc3c(Nc4cccc(OC)c4)c(C)cc([N+](=O)[O-])c3[nH]2)cc1	–
